# Source: US20080161396A1, “Method of control of arthropod pests of game and pet birds” (priority 2006, published 2008)
# Several values for one entry are separate records, joined by “and”; a condition that tells them apart may be missing. Equal entries are not always repeated. Entries after “also recorded” stand apart in the source; their conditions may differ.
# What was measured:
# ticks [1] = settings: pour on; high tick site; cited from earlier work
# ticks [2] = assay: Tick infestation of red grouse chicks after permethrin band treatment of hens and chicks (field experiment, two Moors); assay type: in vivo, Ixodes ricinus
# Protocol: This experiment assessed the effect of ticks on grouse productivity. The experiment was replicated in two sites located in NE Scotland and Perthshire. On each Moor, hens were either treated with permethrin leg bands or with untreated bands. After hatching, chicks from treated hens were also treated and tagged with a permethrin band attached to a metal patagial tag, while chicks from control broods were tagged with only the metal patagial tags.
# (§1) The experiment was conducted on two sites located in the North of Scotland (March-October). In outline, on each Moor, hens were either treated with permethrin leg bands or with untreated band. After hatching, chicks from treated hens were also tagged and treated with permethrin partagial bands, while chicks from control brood were tagged but not treated with permethrin. The experiment was conducted on Tullybeagles Estate in Perthshire (hereafter referred as to Moor 1) and Forest of Birse Estate on Deeside (hereafter Moor 2). Both Moors are managed for grouse (heather burning, predator control, worm control) and had low grouse densities and low productivity in recent years.
# (§2) Catching and treatment of hens. In spring (18 March-6 April), 40 hens were caught on Moor 1 and 20 on Moor 2. Each was randomly assigned to one of two treatments. Half the birds caught at each site were treated (i.e., given acaracide leg bands, two per bird), or kept as control (untreated bands). Hens were fitted with radio collars (TW-3, Biotrack) to facilitate relocation. Birds were aged, weighed, wing length measured and condition score recorded. All hens were dosed with anthelminthic (Levamisole hydrochloride 3%) to remove nematode parasites. Nematodes are well known for their negative effects on grouse breeding success and survival (Hudson, 1986), so removing them standardized the birds for this possible source of variation.
# (§3) Brood survival to 2 weeks +/−5 days and treatment of chicks. Hens were located by radio tracking and pointer dogs were used to locate chicks. As many chicks as possible were captured. […] Brood survival to 1 month days +/−5 days. Hens were located by radio tracking and pointer dogs were used to locate chicks. As many chicks as possible were captured. […] length and tick counts (around head and neck area) were recorded. A blood sample was collected in EDTA coated eppendorfs. At 1 month, because it was difficult to ensure that all the chicks were found during daytime visits with dogs, we also located hens and broods at night by radio tracking and broods were counted using lamp. This provided the best estimate of brood size at 1 month, which was used in subsequent analyses.
# (§4) Statistical analyses. Tick numbers were modeled using generalized linear mixed models with brood as a random effect and using a poisson error distribution. Tick burdens are known to be much less variable within broods than between broods (Elston et al., 2001). The seasonal pattern was investigated by fitting time as julian day (days from 1st January) and the asymptotic pattern in the data was captured using a quadratic function of julian day (julian day*julian day). The interaction between time and treatment was used to determine if the pattern of tick burden varied between treatments. The relationship between tick burden and age was investigated using chick age as number of days post hatching and the quadratic function of chick age to investigate if there was a significant asymptotic relationship between average brood tick abundance and chick age (a rise and fall in tick numbers in relation to age). Hatching success was modeled using logistic regression (binomial error structure) with the proportion of eggs that hatched as a proportion of the total clutch size as the response variable. Brood survival was modeled using logistic regression (binomial error structure) with the proportion of chicks alive as a proportion of the number of chicks that hatched as the response variable. […]
# [3] = Breeding success, brood size, chick survival and chick growth of red grouse (treated vs control hens/broods); assay type: in vivo, red grouse (Lagopus lagopus scoticus); settings: for Breeding success (%): only hens alive at the end of breeding season
# Protocol: as §1, §2
# Laying time. Nests were located by radio tracking and their location recorded using GPS. Clutch size was measured, and all eggs were weighed (with an electronic balance, to the nearest 0.1 g) and measured (length by width, with a caliper, to the nearest 0.1 mm). Egg density was used to estimate hatch dates (see Seivwright, 2004). If clutches were incomplete at first visit, nests were revisited.
# Hatching success. Around predicted hatch date (from egg measurements), nests were located using GPS and number of hatched and un-hatched eggs were recorded. Broods were located by radio-tracking hens and chicks were found and counted with the aid of trained pointer dogs.
# as §3
# Brood size at fledging. Hens were located at around 45 days post hatching. Broods were then flushed and number of chicks was counted.
# as §4, with “age).” for “age). Hatching success was modeled using logistic regression (binomial error structure) with the proportion of eggs that hatched as a proportion of the total clutch size as the response variable. Brood survival was modeled using logistic regression (binomial error structure) with the proportion of chicks alive as a proportion of the number of chicks that hatched as the response variable.”
# [4] = Hen survival of treated and control red grouse hens; assay type: in vivo, red grouse (Lagopus lagopus scoticus); settings: for % hens alive after 6 months: alive in October
# Protocol: as §1, §2
smiles,measurement,setting,value
CC1(C)[C@H](C(=O)O[C@H](C#N)c2cccc(Oc3ccccc3)c2)[C@@H]1C=C(Br)Br [deltamethrin],duration of short term effects,ticks [1],up to 20 days
same,time by which the effect had waned,ticks [1],≤ 40 days
CC1(C)C(C=C(Cl)Cl)C1C(=O)OCc1cccc(Oc2ccccc2)c1 (stereo not drawn) [permethrin],tick infestation rates of treated chicks compared with untreated chicks from treated mothers,"ticks [2]; across season, FIG. 1",significantly lower
same,number of chicks with patagial treatment band found with ticks,ticks [2]; chicks carrying patagial band,one
same,average tick counts on treated chicks compared with control chicks,"ticks [2]; chicks with permethrin patagial band, taking into account seasonal pattern, FIG. 1",significantly lower
same,average ticks per chick in untreated chicks from treated hens compared with control broods,"ticks [2]; hen treatment only (leg bands), across the season, FIG. 1",significantly lower
same,tick infestation in untreated chicks from treated hens compared with controls in relation to chick age,"ticks [2]; hen treatment only, by chick age, FIG. 2",significantly lower
same,tick infestation levels in untreated chicks from treated hens,"ticks [2]; hen treatment only, discussion summary",very low
same,peak tick numbers in untreated chicks from treated hens relative to controls,"ticks [2]; hen treatment only, fraction of that found in controls",about one third
same,peak tick numbers in untreated chicks from treated hens,"ticks [2]; hen treatment only, seasonal pattern",around 4 ticks per chick
same,tick infestation rates of treated chicks compared with untreated chicks from treated mothers,ticks [2]; in relation to chick age,no significant difference
same,maximum mean infestation rate in the treated group,"ticks [2]; treated chicks, age 0 to 55 days, FIG. 2, control around 12",less than 2 ticks per chick
same,tick numbers of treated chicks compared with controls in relation to age,"ticks [2]; treated chicks, age range 0 to 55 days, FIG. 2",significantly lower
same,tick infestation after directly treating chicks with acaracide,"ticks [2]; treated chicks, discussion summary",negligible levels
same,peak average tick numbers per chick in the treated group,"ticks [2]; treated chicks, seasonal pattern, FIG. 1, control peak around 13",2 ticks per chick per brood
same,effect of treatment on growth (wing length or body mass) of chicks,"[3]; Moor 1 & 2 combined, FIG. 4",no effect; also recorded: did not differ
same,Breeding outcome (success %),"[3]; Moor 1, treated",(21.5%)
same,Breeding outcome = Total number of young fledged,"[3]; Moor 1, treated",40
same,Brood size at 1 month,"[3]; Moor 1, treated",3.6 ± 2.9
same,Brood size at 2 weeks,"[3]; Moor 1, treated",6.0 ± 2.7
same,Brood size at fledging,"[3]; Moor 1, treated",2.7 ± 2.9
same,Hatched brood size,"[3]; Moor 1, treated",8.5 ± 3.2
same,Breeding success (%),"[3]; Moor 1, treated",35.9 ± 27.2%
same,Breeding outcome (success %),"[3]; Moor 2, treated",(10.9%)
same,Breeding outcome = Total number of young fledged,"[3]; Moor 2, treated",5
same,Brood size at 1 month,"[3]; Moor 2, treated",2.0 ± 2.0
same,Brood size at 2 weeks,"[3]; Moor 2, treated",3.4 ± 1.0
same,Brood size at fledging,"[3]; Moor 2, treated",1.0 ± 1.2
same,Hatched brood size,"[3]; Moor 2, treated",8.1 ± 2.4
same,Breeding success (%),"[3]; Moor 2, treated",12.8 ± 13.7%
same,effect of hen treatment on number of eggs that hatched as a proportion of the clutch size (hatching success),[3]; both Moors,no effect
same,effect of treatment on brood size at 1 month of age,[3]; both Moors,no effect
same,effect of treatment on brood size at 2 weeks of age,[3]; both Moors,no effect
same,effect of treatment on brood size at fledging,"[3]; both Moors, late July",no effect
same,effect of treatment on chick survival rates,[3]; discussion summary,no effect
same,hatched chicks alive at approximately 2 weeks of age,"[3]; treated group (CL=57-71%), control 58%",65%
same,% hens alive after 6 months,"[4]; Moor 1, treated hens",68.4% and 60%
same,% hens alive after 6 months,"[4]; Moor 2, treated hens",60% and 68%
same,"hen survival, treated compared with control hens","[4]; overall, FIG. 6",did not differ
